The values below come from ChEMBL document CHEMBL1201862, “PubChem BioAssay data set” (2004).

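Dose response: 5 concentrations. Exposure: 48 h. Format: 96-well plates. Endpoint: linear interpolation; highest concentration if not reached. Here, GI50 denotes the concentration required for 50% inhibition of growth.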 The source made the active and inactive calls. No stated cut-off is given here; in the data, active = GI50 up to about 1.1 µM and inactive = higher.

Among the test systems are HL-60; 786-0; SF-295; MOLT-4; SNB-75; CCRF-CEM; TK-10; M14; HCT-15; OVCAR-4; K562; NCI-H226; SNB-19; COLO 205; UACC-257; SK-MEL-2; CAKI-1; NCI/ADR-RES; DU-145; MDA-MB-435.
What all share (test): inhibition of tumour cell growth, NCI panel, 48 h

As to `COC(=O)c1c(-c2ccccc2)sc(-c2cccc3ccccc23)c1C(=O)OC`, the GI50 with HL-60, in the experiment with 786-0, in the experiment on SF-295, with MOLT-4, with SNB-75 and in the experiment with CCRF-CEM was > 100 µM (inactive) in each case. In addition, the GI50 is > 100 µM (inactive) in the experiment on TK-10; > 100 µM (inactive) in the experiment with M14; more than 100 µM in the experiment with HCT-15; 84.7 µM (inactive) with OVCAR-4; > 100 µM (inactive) in the experiment on K562; > 100 µM (inactive) in the experiment on NCI-H226. The GI50 in the experiment on SNB-19, in the experiment with COLO 205, in the experiment on UACC-257, in the experiment on SK-MEL-2 and with CAKI-1 was > 100 µM (inactive) throughout.

As for `COC1=CC(=O)C2C(C1=O)[C@@H]1c3ccccc3OC(C)(C)[C@H]21` (some centres undefined), the GI50 in the experiment on HL-60 was 16.4 µM (inactive); with 786-0, 19.1 µM (inactive); in the experiment on SF-295, 71 µM (inactive); in the experiment with MOLT-4, 10.1 µM (inactive); with SNB-75, 10.6 µM (inactive); in the experiment with CCRF-CEM, 23.1 µM (inactive). Besides, the GI50 with TK-10 was 21.1 µM (inactive); with M14, 18.7 µM (inactive); with HCT-15 it was 19.9 µM; with OVCAR-4, 17.9 µM (inactive); in the experiment on K562, 19 µM (inactive); with NCI-H226, 19.1 µM (inactive). In addition, the GI50 with SNB-19 is 7.73 µM (inactive); in the experiment with COLO 205, 19.2 µM (inactive); with UACC-257, 29.2 µM (inactive); in the experiment with SK-MEL-2 it was 26.3 µM (inactive); in the experiment on CAKI-1, 16.4 µM (inactive).

Take `CC1CN=C(N(C)C(=O)Nc2ccc(Cl)c(Cl)c2)S1` (centres undefined): the GI50 was 22.5 µM (inactive) in the experiment on HL-60; 35.6 µM (inactive) in the experiment on 786-0; 30.9 µM (inactive) in the experiment with SF-295; 27.9 µM (inactive) with MOLT-4; 19.1 µM (inactive) with SNB-75; 33.3 µM (inactive) in the experiment with CCRF-CEM. For the same compound, the GI50 is 26.8 µM (inactive) in the experiment with TK-10; 0.127 µM (active) in the experiment with M14; 21.3 µM in the experiment on HCT-15; 36.6 µM (inactive) in the experiment on OVCAR-4; 23.4 µM (inactive) in the experiment on K562; 14.4 µM (inactive) in the experiment on NCI/ADR-RES. For the same compound, the GI50 in the experiment with DU-145 is 44.8 µM (inactive); with SNB-19, 80 µM (inactive); in the experiment on COLO 205, 40.8 µM (inactive); in the experiment on UACC-257 it was 26.9 µM (inactive); in the experiment on SK-MEL-2 it was 17.4 µM (inactive); with CAKI-1, 7.53 µM (inactive).

For `CCC1NCC(=O)c2c1[nH]c1ccccc21` (centres undefined), the GI50 in the experiment on HL-60, with 786-0, in the experiment on SF-295, in the experiment with MOLT-4, in the experiment with SNB-75 and in the experiment with CCRF-CEM was > 100 µM (inactive) in each case. The GI50 in the experiment with TK-10 is > 100 µM (inactive); in the experiment on M14, > 100 µM (inactive); with HCT-15, more than 100 µM; in the experiment on OVCAR-4, > 100 µM (inactive); with K562 it was > 100 µM (inactive); with NCI-H226, > 100 µM (inactive). In addition, the GI50 in the experiment with SNB-19, with COLO 205, with UACC-257, in the experiment on SK-MEL-2 and in the experiment on CAKI-1 was > 100 µM (inactive) each time.

As to `CCOC(=O)C1=C(O)C(=O)c2cc(C)ccc2C1=O`, the GI50 in the experiment with HL-60 was > 100 µM (inactive); in the experiment with 786-0 it was > 100 µM (inactive); in the experiment on SF-295, 54.3 µM (inactive); in the experiment with MOLT-4, > 100 µM (inactive); with SNB-75, 43.5 µM (inactive); with CCRF-CEM, > 100 µM (inactive). Besides, the GI50 in the experiment on TK-10 is > 100 µM (inactive); in the experiment with M14, 54.8 µM (inactive); in the experiment on HCT-15, 77.8 µM; with OVCAR-4, > 100 µM (inactive); in the experiment on K562, > 100 µM (inactive); in the experiment on NCI-H226, 22.2 µM (inactive). Moreover, the GI50 with SNB-19 is 31.6 µM (inactive); in the experiment with COLO 205, 49.8 µM (inactive); in the experiment on UACC-257, 48 µM (inactive); in the experiment on SK-MEL-2, > 100 µM (inactive); with CAKI-1, > 100 µM (inactive).

As to `CCOP(=O)(OCC)/C(C#N)=C\c1ccc(OC(C)=O)cc1`, the GI50 in the experiment with HL-60 was > 100 µM (inactive); in the experiment on 786-0, > 100 µM (inactive); in the experiment with SF-295, > 100 µM (inactive); with MOLT-4 it was > 100 µM (inactive); with SNB-75, > 78.5 µM (inactive); in the experiment with CCRF-CEM it was > 100 µM (inactive). In addition, the GI50 with TK-10 is > 100 µM (inactive); in the experiment on M14 it was > 100 µM (inactive); with HCT-15, more than 100 µM; in the experiment with OVCAR-4, > 100 µM (inactive); in the experiment with K562 it was > 100 µM (inactive); in the experiment with NCI-H226, > 100 µM (inactive). Further, the GI50 in the experiment with DU-145, in the experiment with SNB-19, with COLO 205, in the experiment on UACC-257, with SK-MEL-2 and in the experiment with CAKI-1 was > 100 µM (inactive) each time.

For the compound `COc1ccc(NCc2cccc3c(=O)c4ccc(Cl)cc4oc23)cc1`, the GI50 in the experiment with 786-0, in the experiment on SF-295, with MOLT-4, in the experiment with SNB-75, with CCRF-CEM and with TK-10 was > 100 µM (inactive) throughout. Moreover, the GI50 in the experiment on M14 is > 100 µM (inactive); in the experiment on HCT-15 it was more than 100 µM; in the experiment with OVCAR-4, > 100 µM (inactive); with K562, > 100 µM (inactive); with NCI-H226, > 100 µM (inactive); in the experiment on NCI/ADR-RES, > 100 µM (inactive). Besides, the GI50 in the experiment with MDA-MB-435, in the experiment on COLO 205, with UACC-257, in the experiment on SK-MEL-2 and in the experiment with CAKI-1 was > 100 µM (inactive) throughout.

For the compound `O=C(c1cc(Cl)ccc1Cl)N1CCN(c2cccc(Cl)c2)CC1`, the GI50 in the experiment on HL-60 was 38.4 µM (inactive); in the experiment on 786-0, 15.3 µM (inactive); in the experiment with SF-295, 7.55 µM (inactive); in the experiment on MOLT-4, 8.51 µM (inactive); in the experiment on SNB-75, 13.9 µM (inactive); in the experiment with CCRF-CEM, 12.2 µM (inactive). For the same compound, the GI50 in the experiment on TK-10 was 49.5 µM (inactive); in the experiment with M14 it was 22.2 µM (inactive); in the experiment with HCT-15, 8.85 µM; in the experiment on OVCAR-4, 33 µM (inactive); in the experiment with K562, 3.92 µM (inactive); in the experiment on NCI-H226, 12.8 µM (inactive). For the same compound, the GI50 in the experiment with DU-145 was 31.5 µM (inactive); with SNB-19 it was 34.8 µM (inactive); with UACC-257, 15.2 µM (inactive); in the experiment on CAKI-1 it was 17.7 µM (inactive).

On to `O=C1O[B-](c2ccccc2)(c2ccccc2)[NH2+]C1CS` (centres undefined), for which the GI50 was 23.9 µM (inactive) in the experiment with HL-60; 21.4 µM (inactive) in the experiment with 786-0; > 100 µM (inactive) with SF-295; 25.4 µM (inactive) in the experiment on MOLT-4; 34.8 µM (inactive) in the experiment on SNB-75; 17.7 µM (inactive) in the experiment with CCRF-CEM. Further, the GI50 in the experiment on TK-10 was 85.1 µM (inactive); in the experiment on M14, 52.6 µM (inactive); in the experiment with HCT-15 it was 36 µM; in the experiment with OVCAR-4, 47.2 µM (inactive); in the experiment on K562, 23.9 µM (inactive); with NCI-H226 it was 68.4 µM (inactive). Also, the GI50 in the experiment on SNB-19 is > 100 µM (inactive); in the experiment on COLO 205 it was 33.4 µM (inactive); in the experiment with UACC-257, 66.1 µM (inactive); with SK-MEL-2, 83.8 µM (inactive); with CAKI-1, 35.6 µM (inactive).
